Results on two compounds are retold here after patent US20180235936A1, “CANCER TREATMENT METHODS” (University of Notre Dame du Lac, priority 2017, published 2018).

One test relates to PTEN. The test is described as follows: PTEN expression by RT-PCR in tumors extracted from treated NOD/SCID mice. It is filed as in vivo. As to conditions: intraperitoneally twice weekly for two weeks; compared to control. Here is the method:
FIG. 16 illustrates a graph of the results from NOD/SCID mice being subcutaneously implanted with one million AsPC1 cells and 200,000 CAF1 cells. Two weeks post implantation mice were treated intraperitoneally with DMSO+PBS, DMSO+gemcitabine, PBS+GW4869, or gemcitabine+GW4869 twice weekly for two weeks. Tumors were extracted for RNA and PTEN expression within tumor samples was quantified via RT-PCR.

Test [1] has as its system pancreatic ductal adenocarcinoma (PDAC). The conditions noted are these: adjuvant gemcitabine, observed cohort; cited from earlier work.
For test [2], the system named is pancreatic cancer-associated fibroblasts (CAF1). The experiment in a line: Exosome secretion from cells during chemotherapy treatment, exosomes isolated from conditioned media and quantified. It is filed as cell-based, human. The conditions noted are these: most prominently from PCAFs; 4 days treatment; vs untreated. The protocol:
(FIG. 4A) CAF1s were left untreated (NT) or treated with 111M gem (GT) for 4 days. Exosomes were isolated from conditioned cell media, and protein lysates were used to perform a western blot for CD81 and beta-actin (left). Isolated exosomes were examined for size and structure via transmission electron microscopy (right). (FIG. 4B) CAF1 cells transduced with a GFP-CD63 lentivirus (GFP-CD63-CAF1s) were treated with luM gemcitabine (GT) or left untreated (NT) and fluorescence was analyzed via microscopy. (FIG. 4C) Total corrected cell fluorescence of GFP-CD63-CAF1 cells was quantified using ImageJ. (FIG. 4D) Cells were treated with 11.1M gemcitabine (Fibroblasts and PANC1), 10 nM gemcitabine (L3.6), or left untreated for 4 days (NT), and exosomes were collected and quantified. Scale bar, 200 Em. *pvalue<0.05; **p-value<0.01.
FIG. 5 illustrates a graph of fold change in exosome secretion per cell. CAF1 cells were plated at 500,000 cells/flask and left untreated (control), treated with 111M gemcitabine, or 10 nM Nab-Paclitaxel for 4 days. Live cells were counted. Exosomes were isolated from conditioned-media and quantified. *p-value<0.05;**p-value<0.01.

A further test has as its system Snai1 and miR-146a. The test is described as follows: RT-PCR of Snai1 and miR-146a in CAF1s and CAF1 exosomes during gemcitabine treatment. It is filed as cell-based, human. Here is the method: (FIG. 11A) RT-PCR. miR-146a and Snai1 levels were altered in CAF1s during 1 μM GEM treatment (GT) (3 days) compared to untreated control (NT). (FIG. 11B) RT-PCR. CAF1s were treated with Snai1-siRNA, and Snai1 and miR-146a expression was measured compared to negative siRNA control treated CAFs. (FIG. 11C) Exosomes from untreated and 1 μM GEM-treated CAF1s were isolated and Snai1 mRNA and miR-146a within CAF1 exosomes was quantified via RT-PCR using relative Ct values. (FIG. 11D-E) L3.6 cells were treated with GT-CAF1 exosomes for 6 days (GTCAF1/L3.6) or left untreated (L3.6 control). AsPC1 cells were treated with GT-CAF1 exosomes for 6 days (GT-CAF1/AsPC1) or left untreated (AsPC1 control). Snai1 (FIG. 11D) and miR-146a (FIG. 11E) levels were quantified in recipient cells via RT-PCR. *p-value<0.05; **p-value<0.01.

Test [3] deals with PCAF extracellular vesicle microRNAs. The test is described as follows: MicroRNA-Seq of extracellular vesicles from gemcitabine-treated versus PBS-treated PCAFs. It is filed as cell-based, human. As to conditions: normalized to total RNA. The text has this: While Snai1 and miR-146a may play an important role in promoting chemoresistance of PECCs, other potential mechanisms exist in which PCAF exosomes may increase chemoresistance. For example, by treating PCAFs with PBS as a control or gemcitabine, collecting their secreted extracellular vesicles, lysing them, collecting the microRNA within, and quantifying the microRNAs, the role of microRNAs is made clearer. […] [table]

The test system of the next test is Snai1 mRNA. The test is described as follows: Snai1 expression by RT-PCR in AsPC1 cells co-cultured with GW4869-treated CAFs. It is filed as cell-based, human. The conditions noted are these: exosome secretion from PCAFs inhibited by GW4869. The protocol:
(§1) (FIG. 8A) AsPC1 cells were grown for 5 days in AsPC1-conditioned media (AsPC1/AsPC1), CAF1-conditioned media (CAF1/AsPC1) or CAF1-conditioned media depleted of exosomes (CAF1-ED/AsPC1) and then treated with 111M GEM for 3 days and live cells were counted. (FIG. 8B) CAF1s were treated with 20 gm GW4869 or DMSO along with 111M gemcitabine or PBS for 3 days. Exosomes in media were collected, dyed with CFSE, and quantified. (FIG. 8C) AsPC1 cells were co-cultured with AsPC1 cells, CAFs, GW4869-treated CAF1s, DMEM alone (Blank/AsPC1), or GW4869 in DMEM (Blank+GW4869) for 6 days then treated during co-culture with 111M gemcitabine for 3 days. Live co-cultured AsPC1 cells at the bottom of the plate were counted. (FIG. 8D) Snai1 expression was measured via RT-PCR in AsPC1 cells co-cultured with untreated CAFs (CAF-NT/AsPC1) or GW4869-treated CAFs (CAF-GW/AsPC1). (FIG. 8E) L3.6 cells were cultured in CAF1-conditioned (CAF1/L3.6) media or CAF1-conditioned media depleted of exosomes (CAF1-ED/L3.6). miR146a expression was measured via RT-PCR. **p-value<0.01.

Test [4] concerns AsPC1 cells and CAF1 cells tumors. The test is described as follows: Subcutaneous AsPC1 + CAF1 tumor growth in NOD/SCID mice. The conditions noted are these: intraperitoneally twice weekly for two weeks. It is filed as in vivo. The protocol: FIGS. 10A-B illustrate graphs of NOD/SCID mice that were subcutaneously implanted with one million AsPC1 cells and 200,000 CAF1 cells. Two weeks post implantation mice were treated intraperitoneally with DMSO+PBS, DMSO+gemcitabine (GEM), or PBS+GW4869 twice weekly for two weeks. (FIG. 10A) Tumor growth over the course of the ten-day post drug treatment. (FIG. 10B) Change in tumor volume from first day of drug treatment to 10 days post initial drug treatment. *p-value<0.05. NS (not significant).
Additionally, it should be appreciated that dosages can be determined as described herein. In one embodiment, the dosage of pharmaceutical composition depends on the drug itself, its efficacy, and its toxicity. As an exemplary embodiment, 2-2.5 gg GW4869 per gram mouse body weight can be intraperitoneally injected into mice twice weekly for two weeks to achieve therapeutic results.

Test [5] has as its system pancreatic epithelial cancer cells (AsPC1) co-cultured with CAFs. The experiment in a line: Co-culture of pancreatic epithelial cancer cells with GW4869-treated CAFs, then gemcitabine; live cell count. It is filed as cell-based, human. The conditions noted are these: GW4869-treated CAFs (20 μM), gemcitabine for three days during co-culture. The protocol:
as §1
The bottom co-cultured epithelial cells were then treated with gemcitabine for three days during co-culture. Live co-cultured epithelial cells at the bottom of the plate were quantified using an automated cell counter. *p-value<0.05; **p-value <0.01. NS (not significant).

The test system of another test is microRNA-92a. The test is described as follows: microRNA-92a expression by RT-PCR in AsPC1 cells co-cultured with GW4869-treated CAFs. It is filed as cell-based, human. The conditions noted are these: PCAFs treated with GW4869 vs DMSO. An excerpt: FIG. 17A illustrates a graph of the results from pancreatic cancer epithelial cells (AsPC1) grown in PCAF-conditioned media; the cells expressed higher levels of microRNA-92a compared to control media, as established via RTPCR.

Test [6] deals with pancreatic cancer-associated fibroblasts (CAF1). The experiment in a line: Exosome release from CAF1s treated with GW4869, exosomes dyed with CFSE and quantified. It is filed as cell-based, human. The conditions noted are these: CAFs; FIG. 8B / FIG. 12. Here is the method:
as §1

The subject of test [7] is pancreatic cancer epithelial cells. The experiment in a line: Scratch migration assay of pancreatic cancer epithelial cells. It is filed as cell-based, human. Further details: dose or concentration left out as unconfirmed. The conditions noted are these: GW4869, serum-free media, three days; vs DMSO. The text has this: FIG. 20 illustrates a graph of the results from pancreatic cancer epithelial cells being grown to full confluency and placed in serum-free media to prevent cell proliferation. A scratch was made down to center of the plate to create a cell free zone for migration. Cells were then given DMSO as a control or 2011M GW4869. Images were taken each day for three days and distance of cell migration was quantified using ImageJ.

Test [8] shares this test system. The experiment in a line: Direct GW4869 treatment of pancreatic cancer epithelial cells followed by gemcitabine; percent live cells (trypan blue). It is filed as cell-based, human. On the set-up: dose or concentration left out as unconfirmed. As to conditions: GW4869 for one day then gemcitabine for three days; vs DMSO. The text has this:
FIG. 19 illustrates a graph of the results from pancreatic cancer epithelial cells being treated with DMSO as a control or 2011M GW4869 for one day then treated with gemcitabine for three days. Live and dead cells were quantified using an automated cell counter and trypan blue staining. Percent live cells was quantified.

Where [9] appears, read: 1 μM GEM treatment (3 days) vs untreated.

Entries after “also recorded” stand apart in the source; their conditions may differ.

As for `Nc1ccn([C@@H]2O[C@H](CO)[C@@H](O)C2(F)F)c(=O)n1` [gemcitabine], the “PTEN expression within the tumors” value in the test with PTEN is on record as “decreased”. Further, the “patients eventually showing tumor recurrence” value in [1] is recorded as 74%. For the same compound, the “secretion of exosomes from cells” value in test [2] is given as “increases secretion of exosomes”. Also, in the test with Snai1 and miR-146a (setting [9]), the “Snai1 level in CAFs” value is recorded as “upregulation” and the “miR-146a level in CAFs” value is “upregulation”. Moreover, in the test on Snai1 and miR-146a (1 μM GEM-treated vs untreated), the “level of Snai1 mRNA in exosomes secreted from PCAFs” value is listed as “higher” and the “level of miR-146a in exosomes secreted from PCAFs” value is “higher”. Also, in test [3], the “Fold Change (GEM vs. NT) of hsa-m1R-221-3p in extracellular vesicles” value stood at 4.325, the “Fold Change (GEM vs. NT) of hsa-miR-21-5p in extracellular vesicles” value turned out to be 2.531, the “Fold Change (GEM vs. NT) of hsa-miR-92a-3p in extracellular vesicles” value is listed as 4.66 and the “Fold Change (GEM vs. NT) of hsa-miR-181a-5p in extracellular vesicles” value is listed as 3.509. In addition, the “Fold Change (GEM vs. NT) of hsa-miR-222-3p in extracellular vesicles” value in test [3] stood at 2.649.
Regarding `O=C(/C=C/c1ccc(/C=C/C(=O)Nc2ccc(C3=NCCN3)cc2)cc1)Nc1ccc(C2=NCCN2)cc1` [GW4869], the “cellular level of Snai1 mRNA within co-cultured PECCs” value in the test with Snai1 mRNA is on record as “decreased”. In addition, in [4], the tumor growth result is “reduced tumor growth”. Moreover, the “chemoresistance of co-cultured PECCs” value in test [5] was “reduced the chemoresistance”. Moreover, in the test on microRNA-92a, the “expression of miR-92a within co-cultured PECCs” value is listed as “reduced expression; also recorded: decreased”. For the same compound, the exosome release entry in test [6] is reported as “suppresses exosome release”. Moreover, in [7], the “cell migration of PECCs” value is listed as “reduced cell migration”. In test [8], the “chemoresistance of PECCs treated directly” value is reported as “reduced chemoresistance”.
